From publication PMC12365113 (IBRO Neuroscience Reports, 2025) come the findings set out here.

Marks after values point to notes of the source that are not given here.

One experiment concerns the target BSA protein glycation (Bos taurus, UniProt P02769). The experiment in a line: Anti-glycation assay. Format: biochemical, Bovine. Conditions: BSA + dextrose, 9 days at 37 °C, mean ± SD of triplicate.
Another experiment has as its target Aβ42 (Homo sapiens, UniProt P05067). Briefly: ThT assay of inhibition of Aβ aggregation. It is filed as biochemical.

Aβ42, sequence (P05067 672-713): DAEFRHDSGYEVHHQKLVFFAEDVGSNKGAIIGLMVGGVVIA
BSA protein glycation, sequence (P02769 25-607): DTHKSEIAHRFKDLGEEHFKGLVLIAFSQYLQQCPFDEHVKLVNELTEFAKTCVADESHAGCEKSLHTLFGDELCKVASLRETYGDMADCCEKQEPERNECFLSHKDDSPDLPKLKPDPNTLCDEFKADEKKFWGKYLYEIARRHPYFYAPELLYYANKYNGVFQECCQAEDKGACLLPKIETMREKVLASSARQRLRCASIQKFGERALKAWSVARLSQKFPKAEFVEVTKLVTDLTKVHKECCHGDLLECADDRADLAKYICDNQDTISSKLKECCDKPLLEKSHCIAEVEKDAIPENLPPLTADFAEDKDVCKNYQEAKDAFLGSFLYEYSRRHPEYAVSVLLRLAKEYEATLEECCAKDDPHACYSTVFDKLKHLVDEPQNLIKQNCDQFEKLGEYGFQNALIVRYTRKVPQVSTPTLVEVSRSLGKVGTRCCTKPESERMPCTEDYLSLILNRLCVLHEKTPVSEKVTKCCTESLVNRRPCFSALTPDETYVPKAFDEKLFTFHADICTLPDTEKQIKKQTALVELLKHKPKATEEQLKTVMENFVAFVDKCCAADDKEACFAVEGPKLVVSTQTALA

With `N=C(N)NN` [Aminoguanidine], the “Half-maximal inhibitory (IC50) values Protein glycation” value at BSA protein glycation is on record as 15.27 ± 0.37^b μg/mL.
Consider `O=S1(=O)OC(c2ccc(O)cc2)(c2ccc(O)cc2)c2ccccc21` [Phenol Red], for which the IC50 – broadly, the concentration that gives 50% inhibition – against Aβ42 was 94.7 µM.
